Data taken from US10202375B2, “N-pyridinyl acetamide derivatives as Wnt signalling pathway inhibitors” (Redx Pharma PLC, priority 2014, dated 2019).

Test system: Wnt pathway (L-Wnt cells producing murine Wnt-3a; Leading Light Wnt Reporter Cells)
Assay: Dual-Cell β-Catenin Reporter Assay
Format: cell-based, Mouse
Details: luciferase signal reduced to 50% of DMSO control
Experimental: Dual-Cell β-Catenin Reporter Assay
Mouse L cells transfected to constitutively produce biologically active murine Wnt-3a, referred to as L-Wnt cells, were purchased from the American Type Culture Collection, ATCC, Manassas, Va. (ATCC). These cells were cultured in DMEM supplemented with 10% FCS (Gibco/Invitrogen, Carlsbad, Calif.), 1% geneticin and 1% sodium pyruvate (Sigma) at 37° C. with 5% CO2. The cells were seeded into 96 well plates and treated with serial dilutions of compound diluted to 0.1% DMSO concentration. After 24 hours, cell supernatants were transferred to a 96 well plate previously seeded with Leading Light® Wnt Reporter Cells, stably transfected with a luciferase gene under control of Wnt pathway response elements. After a further 24 hours, cells are treated with One-glo luciferase assay system (Promega, Madison, Wis.) and the luminescent signal read by envision.

Compound | IC50 (category symbols) [nM] | IC50 (Mus musculus, category symbols) [nM] | other results
2-[4-(2-methyl-4-pyridyl)imidazo[4,5-c]pyridin-1-yl]-N-(5-pyrazin-2-yl-2-pyridyl)acetamide [compound 20] | 1 to 5 | – | –
2-[4-(2-methyl-4-pyridyl)pyrazolo[3,4-b]pyridin-1-yl]-N-(6-pyrazin-2-yl-3-pyridyl)acetamide [compound 15] | 1 to 5 | – | –
2-[5-methyl-4-(2-methyl-4-pyridyl)pyrrolo[2,3-b]pyridin-1-yl]-N-(5-pyrazin-2-yl-2-pyridyl)acetamide [ID No. 1] | < 1 | – | IC50 (specific values): 0.32 nM
2-[6-methyl-4-(2-methyl-4-pyridyl)pyrrolo[2,3-d]pyrimidin-7-yl]-N-(5-pyrazin-2-yl-2-pyridyl)acetamide [ID No. 13] | < 1 | – | –
Cc1cc(-c2c(F)cnc3c2ccn3CC(=O)Nc2ccc(-c3cnccn3)cn2)ccn1 [ID No. 2, 2-[5-fluoro-4-(2-methyl-4-pyridyl)pyrrolo[2,3-b]pyridin-1-yl]-N-(5-pyrazin-2-yl-2-pyridyl)acetamide] | – | < 1 | –
Cc1cc(-c2ccnc3c2ccn3CC(=O)Nc2ccc(-c3cnccn3)nc2)ccn1 [ID No. 17, 2-[4-(2-methyl-4-pyridyl)pyrrolo[2,3-b]pyridin-1-yl]-N-(6-pyrazin-2-yl-3-pyridyl)acetamide] | – | < 1 | –
Cc1cc(-c2ncnc3c2cnn3CC(=O)Nc2ccc(-c3cnccn3)cn2)ccn1 [ID No. 22, 2-[4-(2-methyl-4-pyridyl)pyrazolo[3,4-d]pyrimidin-1-yl]-N-(5-pyrazin-2-yl-2-pyridyl)acetamide] | – | 1 to 5 | –
Cn1nccc1-c1nccc2c1ccn2CC(=O)Nc1ccc(-c2cnccn2)cn1 [compound 4, 2-[4-(2-methylpyrazol-3-yl)pyrrolo[3,2-c]pyridin-1-yl]-N-(5-pyrazin-2-yl-2-pyridyl)acetamide] | – | 1 to 5 | –
Cn1nccc1-c1ccnc2c1cnn2CC(=O)Nc1ccc(-c2cnccn2)cn1 [compound 6, 2-[4-(2-methylpyrazol-3-yl)pyrazolo[3,4-b]pyridin-1-yl]-N-(5-pyrazin-2-yl-2-pyridyl)acetamide] | > 5 | – | –
Cc1cc(-c2nc(N)nc3c2ccn3CC(=O)Nc2ccc(-c3cnccn3)cn2)ccn1 [compound 8, 2-[2-amino-4-(2-methyl-4-pyridyl)pyrrolo[2,3-d]pyrimidin-7-yl]-N-(5-pyrazin-2-yl-2-pyridyl)acetamide] | – | < 1 | –
Cc1cc(-c2nc(Cl)nc3c2ccn3CC(=O)Nc2ccc(-c3cnccn3)cn2)ccn1 [compound 12, 2-[2-chloro-4-(2-methyl-4-pyridyl)pyrrolo[2,3-d]pyrimidin-7-yl]-N-(5-pyrazin-2-yl-2-pyridyl)acetamide] | – | < 1 | –
Cc1cc(-c2ncnc3c2cc(C)n3CC(=O)Nc2ccc(-c3cnccn3)cn2)ccn1 [compound 13, 2-[6-methyl-4-(2-methyl-4-pyridyl)pyrrolo[2,3-d]pyrimidin-7-yl]-N-(5-pyrazin-2-yl-2-pyridyl)acetamide] | – | > 5 | –
Cc1cc(-c2ncnc3c2cnn3CC(=O)Nc2ccc(-c3cnccn3)nc2)ccn1 [compound 14, 2-[4-(2-methyl-4-pyridyl)pyrazolo[3,4-d]pyrimidin-1-yl]-N-(6-pyrazin-2-yl-3-pyridyl)acetamide] | – | 1 to 5 | –
Cc1cc(-c2ncnc3c2ccn3CC(=O)Nc2ccc(-c3cnccn3)nc2)ccn1 [compound 16, 2-[4-(2-methyl-4-pyridyl)pyrrolo[2,3-d]pyrimidin-7-yl]-N-(6-pyrazin-2-yl-3-pyridyl)acetamide] | – | > 5 | –
Cc1cc(-c2ccnc3c2ccn3CC(=O)Nc2ccc(-c3cnccn3)nc2)ccn1 [compound 17, 2-[4-(2-methyl-4-pyridyl)pyrrolo[2,3-b]pyridin-1-yl]-N-(6-pyrazin-2-yl-3-pyridyl)acetamide] | 1 to 5 | – | –
Cn1nccc1-c1ncnc2c1ccn2CC(=O)Nc1ccc(-c2cnccn2)cn1 [compound 18, 2-[4-(2-methylpyrazol-3-yl)pyrrolo[2,3-d]pyrimidin-7-yl]-N-(5-pyrazin-2-yl-2-pyridyl)acetamide] | – | 1 to 5 | –

The next lines start with results.

IC50 (category symbols) [nM] | IC50 (Mus musculus, category symbols) [nM] | Compound | other results
> 5 | – | Cc1cc(-c2ncnc3c2ncn3CC(=O)Nc2ccc(-c3cnccn3)cn2)ccn1 [compound 19, 2-[6-(2-methyl-4-pyridyl)purin-9-yl]-N-(5-pyrazin-2-yl-2-pyridyl)acetamide] | –
– | < 1 | O=C(Cn1ccc2c(-c3ccnc(C(F)(F)F)c3)ncnc21)Nc1ccc(-c2cnccn2)cn1 [compound 21, N-(5-pyrazin-2-yl-2-pyridyl)-2-[4-[2-(trifluoromethyl)-4-pyridyl]pyrrolo[2,3-d]pyrimidin-7-yl]acetamide] | –
< 1 | – | Cc1cc(-c2ncnc3c2cnn3CC(=O)Nc2ccc(-c3cnccn3)cn2)ccn1 [compound 22, 2-[4-(2-methyl-4-pyridyl)pyrazolo[3,4-d]pyrimidin-1-yl]-N-(5-pyrazin-2-yl-2-pyridyl)acetamide] | –
– | < 1 | Cc1cc(-c2nccc3c2ccn3CC(=O)Nc2ccc(-c3cnccn3)cn2)ccn1 [compound 23, 2-[4-(2-methyl-4-pyridyl)pyrrolo[3,2-c]pyridin-1-yl]-N-(5-pyrazin-2-yl-2-pyridyl)acetamide] | IC50 (Mus musculus, specific values): 0.43 nM
– | < 1 | Cc1cc(-c2cncc3c2ccn3CC(=O)Nc2ccc(-c3cnccn3)cn2)ccn1 [compound 24, 2-[4-(2-methyl-4-pyridyl)pyrrolo[2,3-c]pyridin-1-yl]-N-(5-pyrazin-2-yl-2-pyridyl)acetamide] | –
– | < 1 | Cc1cc(-c2ccnc3c2cnn3CC(=O)Nc2ccc(-c3cnccn3)cn2)ccn1 [compound 25, 2-[4-(2-methyl-4-pyridyl)pyrazolo[3,4-b]pyridin-1-yl]-N-(5-pyrazin-2-yl-2-pyridyl)acetamide] | –
> 5 | – | CN1CCN(c2ccnc3c2ccn3CC(=O)Nc2ccc(-c3cnccn3)cn2)CC1 [compound 28, 2-[4-(4-methylpiperazin-1-yl)pyrrolo[2,3-b]pyridin-1-yl]-N-(5-pyrazin-2-yl-2-pyridyl)acetamide] | –
> 5 | – | CC1CN(c2ccnc3c2ccn3CC(=O)Nc2ccc(-c3cnccn3)cn2)CC(C)N1 (stereo not shown) [compound 29, 2-[4-(3,5-dimethylpiperazin-1-yl)pyrrolo[2,3-b]pyridin-1-yl]-N-(5-pyrazin-2-yl-2-pyridyl)acetamide] | –
– | < 1 | Cn1nccc1-c1ccnc2c1ccn2CC(=O)Nc1ccc(-c2cnccn2)cn1 [compound 31, 2-[4-(2-methylpyrazol-3-yl)pyrrolo[2,3-b]pyridin-1-yl]-N-(5-pyrazin-2-yl-2-pyridyl)acetamide] | IC50 (Mus musculus, specific values): 0.89 nM
